Test results taken from PMC7394005, “Assessing the Selectivity of FXR, LXRs, CAR, and RORγ Pharmaceutical Ligands With Reporter Cell Lines” (Frontiers in Pharmacology, 2020).

Molecular target: T1, human PXR (Homo sapiens, UniProt O75469)
T1 construct: The GAL4-NR chimeric cell lines provide uniform cellular model differing just in receptor LBDs; expressed in transfected cells; host or cells: HG5LN PXR (HeLa-derived; described in Delfosse et al., 2015)
T1 sequence (O75469 146-433 limits assumed): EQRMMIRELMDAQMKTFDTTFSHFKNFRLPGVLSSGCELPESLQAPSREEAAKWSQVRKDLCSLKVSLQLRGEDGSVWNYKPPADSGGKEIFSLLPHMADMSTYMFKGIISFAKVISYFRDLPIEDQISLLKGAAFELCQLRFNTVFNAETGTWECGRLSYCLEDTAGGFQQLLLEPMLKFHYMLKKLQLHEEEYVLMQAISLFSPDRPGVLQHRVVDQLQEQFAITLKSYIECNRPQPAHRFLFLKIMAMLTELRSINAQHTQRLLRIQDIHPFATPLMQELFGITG
Experiment: HG5LN PXR reporter cell line, antagonist mode in presence of SR12813
Type: cell-based
Conditions: read-out: PXR (SR12813 300 nM) IC50; in presence of SR12813 300 nM; NE = No effect
Method: To characterize the specificity of chemicals for human FXR, LXRα, LXRβ, CAR and RORγ, we established in a similar manner HG5LN FXR, LXRα, LXRβ, CAR WT, CAR (APYLT) and RORγ reporter cell lines. […] These cells were stably transfected by pSG5-GAL4 (DBD)-NRs (LBD)-puromycin plasmid and selected in presence of 0.5 µg/ml puromycin. […] From each HG5LN NR cells, 5 to 10 clones were chosen for their ligand inducibility of luciferase expression. […] The most inducible clones were expanded and rechecked for inducibility and aliquots were frozen at different passages. One clone per receptor was maintained in culture and used for ligand screening. HG5LN cells were cultured in Dulbecco’s modified Eagle’s medium (DMEM): Nutrient Mixture F-12 (DMEM/F-12) containing phenol red and 1 g/l glucose and supplemented with 5% fetal bovine serum, 100 units/ml of penicillin, 100 µg/ml of streptomycin and 1 mg/ml geneticin, in 5% CO2 humidified atmosphere at 37°C. Stably transfected cell lines derived from HG5LN cells were cultured in the same culture medium supplemented with 0.5 µg/ml puromycin.
(§1) Individual reporter cell lines were seeded at a density of 40,000 cells per well in 96-well white opaque tissue culture plates (Greiner CellStar) in Dulbecco’s Modified Eagle Medium: Nutrient Mixture F-12 (DMEM/F-12) without phenol red and 1 g/l glucose and supplemented with 5% stripped fetal bovine serum, 100 units/ml of penicillin, 100 µg/ml of streptomycin (test medium). Chemicals to be tested were added 24h later, and cells were incubated at 37°C for 16h. Experiments were performed in quadruplicates. At the end of the incubation period, culture medium was replaced with test medium containing 0.3 mM luciferin solution. Luciferase activity was measured for 2s in intact living cells after 10 min stabilization using a Micro Beta Wallac luminometer (PerkinElmer). EC50 values were calculated using GraphPad Prism (GraphPad Software Inc).
Chemicals tested for agonism on FXR, LXRs, CAR (+ APYLT), PXR, and antagonism on CAR and RORγ were tested alone, without addition of any other ligand.
In the transactivation assay, each compound was tested at various concentrations in three independent experiments at least. For each experiment, tests were performed in quadruplicates for each concentration, and data are expressed by means values with standard deviations. Individual agonist dose–response curves, in the absence and presence of antagonist, were fitted using the sigmoid dose-response function of a graphics and statistics software program (GraphPad Prism, version 5.0). EC50 (effective concentration for half-maximal luciferase activity) and IC50 (half-maximal inhibitory concentration) values were calculated from equations used to fit the data in this graphic software. Transactivation data are presented as EC50 and IC50 values for each compound tested. To analyze significances, we compared individual compound treatments with controls using one-way analysis of variance (ANOVA) with the help of GraphPad Prism software.

Row | Compound | IC50
1 | COc1cccc(Cn2cc(C(=O)Nc3ccc(C)c(S(=O)(=O)N4CCOCC4)c3)c(-c3ccc(C)cc3)n2)c1 [DY268] | > 10 µM
2 | COC(=O)/C=C/c1cccc(N(Cc2ccc(-c3ccc(N(C)C)cc3)cc2)C(=O)C2CCCCC2)c1 [Feraxamine] | > 10 µM
3 | CC(C)c1onc(-c2c(Cl)cccc2Cl)c1COc1ccc(/C=C/c2cccc(C(=O)O)c2)c(Cl)c1 [GW4064] | > 10 µM
4 | Cc1oc2ccccc2c1CNC(=O)NCc1cccs1 [S07662] | > 10 µM
5 | CC(=O)Nc1nc(C)c(S(=O)(=O)Nc2ccc(C(O)(C(F)(F)F)C(F)(F)F)cc2)s1 [SR1001] | > 10 µM
6 | O=C(Nc1ccc(C(O)(C(F)(F)F)C(F)(F)F)cc1)c1ccc(C(F)(F)F)cc1 [SR1078] | > 10 µM

Test system: HG5LN parental cell line
Experiment: Non-specific modulation of luciferase expression in HG5LN parental cell line
Type: cell-based, human
Conditions: HG5LN parental cells lacking Gal4-NRs; Figure S2
Method: HG5LN and HG5LN PXR cells have already been described ([Delfosse et al., 2015]). To characterize the specificity of chemicals for human FXR, LXRα, LXRβ, CAR and RORγ, we established in a similar manner HG5LN FXR, LXRα, LXRβ, CAR WT, CAR (APYLT) and RORγ reporter cell lines. HG5LN are HeLa cells stably transfected by the (GAL4RE)5-βGlob-Luc-SVNeo plasmid ([Seimandi et al., 2005]). These cells were stably transfected by pSG5-GAL4 (DBD)-NRs (LBD)-puromycin plasmid and selected in presence of 0.5 µg/ml puromycin. […] From each HG5LN NR cells, 5 to 10 clones were chosen for their ligand inducibility of luciferase expression. We noted that the basal activity in absence of ligand strongly differed among NRs. FXR, LXRs, and CAR APYLT had the lowest basal activities, whereas CAR and RORγ had the highest. The most inducible clones were expanded and rechecked for inducibility and aliquots were frozen at different passages. One clone per receptor was maintained in culture and used for ligand screening. HG5LN cells were cultured in Dulbecco’s modified Eagle’s medium (DMEM): Nutrient Mixture F-12 (DMEM/F-12) containing phenol red and 1 g/l glucose and supplemented with 5% fetal bovine serum, 100 units/ml of penicillin, 100 µg/ml of streptomycin and 1 mg/ml geneticin, in 5% CO2 humidified atmosphere at 37°C. Stably transfected cell lines derived from HG5LN cells were cultured in the same culture medium supplemented with 0.5 µg/ml puromycin.
as §1
To evaluate the FXR, LXRα, LXRβ, PXR, CAR, and RORγ specificity of pharmaceutical chemicals, we established HG5LN reporter cell lines expressing human FXR, LXRα, LXRβ, CAR, CAR (+ APYLT), and RORγ. Then, we tested the agonistic/antagonistic potential of 22 commercially available pharmaceutical compounds ( Figure S1 ) on these cells and in the previously established PXR cell line ([Delfosse et al., 2015]). The 22 chemicals were first tested for non-specific modulation of luciferase expression on the HG5LN parental cell line, which contains the same reporter gene as HG5LN-GAL4-NRs cells, but lacks of Gal4-NRs. […] The basal (in absence of ligand) and the maximal (in presence of NR-specific full agonist) activities of HG5LN and the different HG5LN GAL4-NRs were measured. […] The expression of FXR induced the slight repression of basal transcription, while both LXRs and PXR had no effect, or just slightly activated the basal transcription ( Figure 1 ). Consequently, the baseline activities were normalized as percentage of maximal activity mediated by full agonists, as follows: 6% for FXR, 8% for LXRα, 9% for LXRβ, 19% for PXR ( Table 1 ). On the contrary, the basal activity was increased by the expression of CAR and RORγ. Due to the inherent constitutive activity, we determined this activity equal to 100% as the specific agonists were not able to reveal their transactivation potential alone, but they were able to reverse the inhibition caused by antagonists/reverse agonists. To characterize easily CAR agonists, we used cell line expressing a variant of CAR (CAR + APYLT) with reduced basal ([Auerbach et al., 2003]). […]

Row | Compound | Nonspecific activation of luciferase expression in HG5LN parental cell line | Toxicity (non-specific decrease of luciferase expression) in HG5LN parental cell line
7 | Clc1ccc(-c2nc3sccn3c2/C=N/OCc2ccc(Cl)c(Cl)c2)cc1 [CITCO] | significant nonspecific activation | 
8 | Clc1ccccc1C(c1ccccc1)(c1ccccc1)n1ccnc1 [Clotrimazole, clotrimazole] |  | most toxic
9 | COc1cccc(Cn2cc(C(=O)Nc3ccc(C)c(S(=O)(=O)N4CCOCC4)c3)c(-c3ccc(C)cc3)n2)c1 [DY268] | significant nonspecific activation | 
10 | Cc1cc(C)c(S(=O)(=O)N(Cc2ccc(-c3cccc(S(C)(=O)=O)c3)cc2)Cc2ccc(C(F)(F)F)o2)c(C)c1 [GSK2033] | significant nonspecific activation | 
11 | CC(C)c1onc(-c2c(Cl)cccc2Cl)c1COc1ccc(/C=C/c2cccc(C(=O)O)c2)c(Cl)c1 [GW4064] | significant nonspecific activation | 
12 | Fc1ccc(-c2c3cccc(C(F)(F)F)c3nn2Cc2ccc(F)cc2Cl)cc1 [WAY252623] | significant nonspecific activation | 
13 | SPA70 |  | most toxic
